Measurements as given in PubChem BioAssay (NCI).
“And” between values parts separate entries of the source, which are not always exact repeats. Equal values may be shown once.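 Test compounds were applied to cells in 96-well plates for 48 hours at 5 doses. At the GI50, growth is halved. TGI denotes the concentration required for complete inhibition of growth.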

Tests used:
Assay in all cases: inhibition of tumour cell growth, NCI panel, 48 h
[1] = system: NCI-H226 lung
[2] = system: CAKI-1 renal
[3] = system: MDA-MB-231 breast
[4] = system: TK-10 renal
[5] = system: SR leukemia
[6] = system: CCRF-CEM leukemia
[7] = system: NCI-H522 lung
[8] = system: HL-60(TB) leukemia
[9] = system: T-47D breast
[10] = system: BT-549 breast

C[C@@H]1CC[C@H]2C(COCC3=C(C(F)(F)F)O[C@@H]4O[C@@]5(C)CC[C@H]6[C@H](C)CC[C@@H]3[C@@]46OO5)=C(C(F)(F)F)O[C@@H]3O[C@@]4(C)CC[C@@H]1[C@]32OO4
GI50 [1]: 0.047 µM | TGI [1]: > 100 µM | GI50 [2]: 0.205 µM | TGI [2]: > 100 µM | GI50 [3]: 0.037 µM | TGI [3]: > 100 µM | GI50 [4]: 0.143 µM | TGI [4]: > 100 µM | GI50 [5]: < 0.01 µM | TGI [5]: > 100 µM | GI50 [6]: < 0.0284 µM | TGI [6]: > 100 µM | GI50 [7]: < 0.01 µM | TGI [7]: 0.073 µM | GI50 [8]: < 0.01 µM | TGI [8]: > 100 µM | GI50 [9]: < 0.01 µM | TGI [9]: > 100 µM

Cc1nn(-c2ccc(S(=O)(=O)[O-])cc2)c([O-])c1N=[N+](C)c1ccc(-c2ccc(N=Nc3ccc4c(S(=O)(=O)[O-])cc(S(=O)(=O)[O-])c(N)c4c3[O-])c([O-])c2)cc1[O-].[Cu+2].[Cu+2].[Na+]
GI50 [1]: > 100 µM | TGI [1]: > 100 µM | GI50 [2]: > 100 µM | TGI [2]: > 100 µM | GI50 [3]: > 100 µM | TGI [3]: > 100 µM | GI50 [4]: > 100 µM | TGI [4]: > 100 µM | GI50 [5]: > 100 µM | TGI [5]: > 100 µM | GI50 [10]: > 100 µM | TGI [10]: > 100 µM | GI50 [6]: > 100 µM | TGI [6]: > 100 µM | GI50 [7]: > 100 µM | TGI [7]: > 100 µM | GI50 [9]: > 100 µM | TGI [9]: > 100 µM

O=C1NC(c2ccc(O)cc2)C2CCC1C2 (stereo not drawn)
TGI [1]: > 100 µM | TGI [2]: > 100 µM | TGI [4]: > 100 µM | TGI [5]: > 100 µM | TGI [6]: > 100 µM | TGI [7]: > 100 µM | TGI [8]: > 100 µM

O=[N+]([O-])[C@@H]1C2C=CC(C2)[C@H]1Cl (stereo partly drawn)
TGI [2]: > 100 µM | TGI [4]: > 100 µM | TGI [5]: > 100 µM | TGI [6]: > 100 µM | TGI [7]: > 100 µM | TGI [8]: > 100 µM

N/C(CC(=O)Nc1cc(C(F)(F)F)ccc1Cl)=N\O
TGI [1]: > 100 µM | TGI [2]: > 100 µM | TGI [3]: > 100 µM | TGI [4]: > 100 µM | TGI [5]: > 100 µM | TGI [10]: > 100 µM | TGI [7]: > 100 µM | TGI [8]: > 100 µM | TGI [9]: > 100 µM

O=C(C#Cc1c[nH]c(=O)[nH]c1=O)c1ccccc1Cl
TGI [1]: 75.7 µM | TGI [2]: 31.3 µM | TGI [4]: 36.1 µM | TGI [6]: 59.8 µM | TGI [8]: 48.1 µM

COc1ccc2cc1Oc1ccc(cc1)C[C@H]1c3cc(c(OC)cc3CCN1C)Oc1c(OC)c(OC)cc3c1[C@H](C2)N(C)CC3
GI50 [3]: 2.19 µM | GI50 [4]: 12.7 µM | TGI [4]: 15.6 µM and 25.2 µM and 53.5 µM | GI50 [5]: 0.0282 µM | GI50 [7]: 3.27 µM | TGI [7]: 14.9 µM and 12.2 µM and > 100 µM | TGI [8]: 16.1 µM and 23.8 µM and > 100 µM

COc1ccc(/C=C/C=C(/C#N)C(N)=S)cc1
GI50 [1]: 55.7 µM | TGI [1]: > 100 µM | GI50 [2]: 29.6 µM | TGI [2]: > 100 µM | GI50 [3]: 26.9 µM | TGI [3]: 87.4 µM | GI50 [4]: 37.6 µM | TGI [4]: > 100 µM | GI50 [5]: 19.4 µM | TGI [5]: > 100 µM | GI50 [10]: 30.1 µM | TGI [10]: > 100 µM | GI50 [7]: 26.1 µM | TGI [7]: 58.3 µM | GI50 [8]: 26 µM | TGI [8]: > 100 µM | GI50 [9]: 18.8 µM | TGI [9]: 76.9 µM

CCc1c2c(nc3cc4c(cc13)OCO4)-c1cc3c(c(=O)n1C2)COC(=O)[C@]3(O)CC
GI50 [1]: < 0.001 µM | TGI [1]: 0.227 µM | GI50 [2]: < 0.001 µM | GI50 [3]: 0.0726 µM and 0.167 µM | TGI [3]: > 100 µM | GI50 [4]: 0.294 µM and 1.91 µM | GI50 [5]: < 0.001 µM | GI50 [10]: 0.0654 µM and 0.0367 µM | TGI [10]: 5.29 µM and 0.782 µM | GI50 [8]: < 0.001 µM | GI50 [9]: < 0.001 µM

C1COCCN1.C1COCCN1.N.N.[Cl-].[Pt+2]
GI50 [1]: > 100 µM | TGI [1]: > 100 µM | GI50 [2]: 54.1 µM | TGI [2]: > 100 µM | GI50 [4]: > 100 µM | TGI [4]: > 100 µM | GI50 [5]: > 100 µM | TGI [5]: > 100 µM | GI50 [7]: > 100 µM | TGI [7]: > 100 µM

O=C(Nc1cccc(-n2ccc3c(NC(=O)c4ccccc4)nccc32)c1)c1cccc(C(F)(F)F)c1
GI50 [1]: 0.153 µM | TGI [1]: > 68.6 µM | GI50 [2]: 0.0556 µM | TGI [2]: 3.36 µM | GI50 [3]: 0.0533 µM | TGI [3]: 1.29 µM | GI50 [4]: 0.103 µM | TGI [4]: 19.4 µM | GI50 [5]: 0.0284 µM | GI50 [10]: 0.127 µM | TGI [10]: 1.3 µM | GI50 [6]: 0.0358 µM | TGI [6]: 4.13 µM | GI50 [7]: 0.0199 µM | TGI [7]: 0.0759 µM | GI50 [8]: 0.0343 µM | TGI [8]: 0.653 µM

Cc1ccc(-c2c(N)nc(NC#N)nc2CCC(=O)Nc2ccccc2[N+](=O)[O-])cc1
TGI [1]: > 100 µM | TGI [2]: > 100 µM | TGI [4]: > 100 µM | TGI [5]: > 100 µM | TGI [6]: > 100 µM | TGI [7]: > 100 µM | TGI [8]: > 100 µM

COc1cc2c(c3c1C=CCO3)C(=O)c1ccccc1C2=O
TGI [1]: 97.8 µM | TGI [4]: > 100 µM | TGI [5]: > 100 µM | TGI [6]: 66.4 µM | TGI [7]: > 100 µM | TGI [8]: 57.7 µM

CCCCCCCCCCCCC(=O)OC(c1cnco1)c1nc(C(O)CC(O)C(O)C(C)O)co1 (stereo not drawn)
GI50 [1]: 0.28 µM | GI50 [2]: 4.96 µM | TGI [2]: > 55.3 µM | GI50 [4]: 5.04 µM | TGI [4]: > 76.5 µM | GI50 [5]: 0.337 µM | TGI [5]: 2.5 µM | GI50 [6]: 0.838 µM | TGI [6]: > 61.5 µM | GI50 [7]: 3.18 µM | TGI [7]: > 25.1 µM | GI50 [8]: 0.544 µM | TGI [8]: 25.4 µM

FC(F)(F)c1nc(-c2ccccc2Cl)[nH]c1C(F)(F)F
TGI [1]: 3.54 µM | TGI [2]: 1.65 µM | TGI [4]: 14.5 µM | TGI [5]: 1.68 µM | TGI [6]: 1.6 µM | TGI [8]: 1.22 µM

N#CC1(c2nc3ccccc3o2)C(=O)C(=O)N(C2C3CC4CC(C3)CC2C4)C(=O)C1=O (stereo not drawn)
TGI [1]: > 100 µM | TGI [2]: > 100 µM | TGI [4]: > 100 µM | TGI [5]: > 100 µM | TGI [6]: > 100 µM | TGI [7]: > 100 µM | TGI [8]: > 100 µM

C=CCSC[C@H](NC(=O)COc1ccccc1)C(=O)NC(C(=O)OCc1ccc([N+](=O)[O-])cc1)=C(C)C
TGI [1]: > 100 µM | TGI [6]: > 100 µM | TGI [7]: > 100 µM | TGI [8]: > 100 µM

COC(=O)C1OC(O[C@H]2CCC3(C)C(CCC4(C)C3CC=C3C5CC(C)(C)CCC5(C(=O)O)CC[C@]34C)C2(C)C)C(O)C(OC2OC(CO)C(O)C(O)C2O)C1O (stereo partly drawn)
GI50 [1]: 6.18 µM | TGI [1]: 12.2 µM | GI50 [2]: 12.2 µM | TGI [2]: > 33.3 µM | GI50 [3]: 7.28 µM | TGI [3]: 13.5 µM | GI50 [4]: 7.22 µM | TGI [4]: 14.2 µM | GI50 [10]: 6.93 µM | TGI [10]: 15 µM | GI50 [6]: 5.79 µM | TGI [6]: 13.1 µM | GI50 [7]: 10.5 µM | TGI [7]: 29 µM | GI50 [8]: 6.92 µM | TGI [8]: 18.2 µM | GI50 [9]: 8.16 µM | TGI [9]: 17.2 µM

CC(C)(C)OC(=O)n1cc(CNC(=S)Nc2ccccc2)c2ccccc21
GI50 [1]: 14.3 µM | TGI [1]: 30.7 µM | GI50 [2]: 4.68 µM | TGI [2]: 23.2 µM | GI50 [3]: 15.5 µM | TGI [3]: 28.8 µM | GI50 [4]: 14.6 µM | TGI [4]: 53.9 µM | GI50 [5]: 5.07 µM | TGI [5]: > 100 µM | GI50 [10]: 14.5 µM | TGI [10]: 32.7 µM | GI50 [7]: > 100 µM | TGI [7]: > 100 µM | GI50 [8]: 11.6 µM | TGI [8]: 55.3 µM
